Source: patent publication US20190380912A1, “EXCIPIENT FREE GLUCOSAMINE TABLETS AND METHOD OF MAKING” (Purepharm Inc., priority 2018, published 2019)

Assay: Friability and hardness of dried tablets on handling
Assay type: physicochemical
Conditions: Pellet Press, dry powder without water

compressibility: did not compress at all
SMILES: CC(=O)N[C@H]1C(O)O[C@H](CO)[C@@H](O)[C@@H]1O (stereo partly shown) [N-Acetylglucosamine]
